From ChEMBL document CHEMBL6083269, “Design, synthesis, in vitro and in vivo trypanosomaticidal efficacy of novel 5-nitroindolylazines” (Eur J Med Chem, 2024) come the findings set out here.

Each structure is given as a SMILES string.

The nature of data set [1]: Cytotoxicity against green monkey Vero cells incubated for 48 hrs by resazurin dye based assay. It is filed as toxicity, cell-based. The settings on record: African green monkey (Chlorocebus sabaeus).
A short description of data set [2]: Cytotoxicity against human […]-differentiated THP-1 cells incubated for 72 hrs by resazurin dye based assay. It is filed as toxicity, cell-based.
Data set [3] deals with Leishmania donovani. As to the kind of experiment: Antileishmanial activity against Leishmania donovani 9515 (MHOM/IN/95/9151) promastigote incubated for 48 hrs by resazurin dye based plate reader assay. It is filed as functional, organism-based.
For data set [4], the system named is Leishmania donovani. As to the kind of experiment: Antileishmanial activity against Leishmania donovani 9515 (MHOM/IN/95/9151) amastigote infected in THP-1 cells assessed as inhibition of parasite growth incubated for 72 hrs by resazurin dye based plate reader assay. It is filed as functional, organism-based. The conditions noted are these: THP-1, 72 h.
Data set [5] relates to Leishmania donovani. Briefly: Leishmanicidal activity against Leishmania donovani 9515 (MHOM/IN/95/9151) amastigote infected in THP-1 cells incubated for 72 hrs by resazurin dye based plate reader assay. Type of data set: functional, organism-based. The settings on record: THP-1, 72 h.
A short description of data set [6]: Cytotoxicity against MDBK cells incubated for 72 hrs by CCK8 assay. Type of data set: toxicity, cell-based, Bos taurus. The settings on record: cattle, MDBK cells.
For data set [7], the system named is Trypanosoma brucei gambiense. Briefly: Trypanocidal activity against Trypanosoma brucei gambiense IL1922 incubated for 72 hrs by CellTiter-Glo reagent based […] analysis. Type of data set: functional, organism-based. The conditions noted are these: IL1922, 72 h.
Data set [8] relates to Trypanosoma brucei rhodesiense. As to the kind of experiment: Trypanocidal activity against Trypanosoma brucei rhodesiense IL1501 incubated for 72 hrs by CellTiter-Glo reagent based […] analysis. The settings on record: IL1501, 72 h. Type of data set: functional, organism-based.
In data set [9] the test system is Trypanosoma brucei brucei. As to the kind of experiment: Trypanocidal activity against Trypanosoma brucei brucei GUTat3.1 incubated for 72 hrs by CellTiter-Glo reagent based […] analysis. Type of data set: functional, organism-based. The conditions noted are these: GUTat3.1, 72 h.
The test system of data set [10] is Trypanosoma congolense. As to the kind of experiment: Trypanocidal activity against Trypanosoma congolense IL3000 incubated for 72 hrs by CellTiter-Glo reagent based […] analysis. Type of data set: functional, organism-based. The conditions noted are these: IL3000, 72 h.
Data set [11] has as its system Trypanosoma evansi. As to the kind of experiment: Trypanocidal activity against Trypanosoma evansi Tansui incubated for 72 hrs by CellTiter-Glo reagent based […] analysis. Type of data set: functional, organism-based.
In data set [12] the test system is Trypanosoma equiperdum. As to the kind of experiment: Trypanocidal activity against Trypanosoma equiperdum IVM-t1 incubated for 72 hrs by CellTiter-Glo reagent based […] analysis. It is filed as functional, organism-based. The conditions noted are these: IVM-t1, 72 h.
Data set [13] in a line: Selectivity index, ratio of CC50 for MDBK to IC50 for Trypanosoma congolense IL3000. Type of data set: toxicity, cell-based. The settings on record: cattle, MDBK cells; read-out: Ratio CC50/IC50.
The nature of data set [14]: Selectivity index, ratio of IC50 for african green monkey Vero cells to IC50 for static antileishmanial activity against Leishmania donovani 9515 (MHOM/IN/95/9151) amastigote. It is filed as toxicity, cell-based. The settings on record: read-out: Ratio IC50.
Data set [15] in a line: Selectivity index, ratio of IC50 for human THP-1 cells to IC50 for static antileishmanial activity against Leishmania donovani 9515 (MHOM/IN/95/9151) amastigote. It is filed as toxicity, cell-based. The settings on record: read-out: Ratio IC50.
A short description of data set [16]: Selectivity index, ratio of IC50 for african green monkey Vero cells to IC50 for leishmanicidal activity against Leishmania donovani 9515 (MHOM/IN/95/9151) amastigote. The conditions noted are these: read-out: Ratio IC50. It is filed as toxicity, cell-based.
Data set [17] can be described thus: Selectivity index, ratio of IC50 for human THP-1 cells to IC50 for leishmanicidal activity against Leishmania donovani 9515 (MHOM/IN/95/9151) amastigote. It is filed as toxicity, cell-based. The settings on record: read-out: Ratio IC50.

With `C#CCn1cc(/C=N\N=C\c2ccncc2)c2cc([N+](=O)[O-])ccc21`, in data set [1], the IC50 at 48 h is > 100 µM. In data set [2], this compound yielded an IC50 at 72 h of 66.4 µM. Besides, the IC50 in [3] was > 10 µM; in data set [4], > 10 µM; in [5], > 10 µM; in data set [7] it was > 75.5 µM; in [8] it was > 75.5 µM; in [9] it was > 75.5 µM. The IC50 in data set [10], in data set [11] and in [12] was > 75.5 µM throughout. Moreover, the CC50 at 72 h in data set [6] turned out to be 267 µM.

For `C#CCn1cc(C=O)c2cc([N+](=O)[O-])ccc21`, the 50% inhibitory concentration (IC50) at 48 h in [1] was > 100 µM. In [2], the IC50 at 72 h was 77 µM. For the same compound, the IC50 in data set [3] is > 10 µM; in data set [4], > 10 µM; in [5], > 10 µM; in [7], > 110 µM; in data set [8], > 110 µM; in data set [9], > 110 µM. Besides, the half-inhibitory concentration (IC50) in [10], in data set [11] and in data set [12] was > 110 µM in each case. Also, the CC50 at 72 h in [6] is > 438 µM.

`C#CCn1cc(/C=N\N=C/C)c2cc([N+](=O)[O-])ccc21` showed an IC50 at 48 h in [1] of 89 µM. The compound further came in with an IC50 at 72 h in data set [2] of 59.3 µM. For the same compound, the concentration for half-maximal inhibition (IC50) was > 10 µM in [3]; > 10 µM in data set [4]; > 10 µM in data set [5]; > 93.2 µM in data set [7]; > 93.2 µM in data set [8]; > 93.2 µM in data set [9]. Moreover, the IC50 in data set [10], in [11] and in [12] was > 93.2 µM in each case. Also, the CC50 at 72 h in data set [6] is > 373 µM.

For the compound `NCCCC(N)(C(=O)O)C(F)F` (stereo not given) [EFLORNITHINE], the IC50 in data set [7] was found to be 36.7 µM; in data set [8], 46 µM; in data set [9] it was 38.6 µM; in [10], 16.1 µM; in [11], 57.2 µM.

`N=C(N)c1ccc(/N=N/Nc2ccc(C(=N)N)cc2)cc1` [DIMINAZENE DIACETURATE]: the results for the 50% inhibitory concentration (IC50) in data set [10] and in [12] were 0.109 µM and 0.011 µM, respectively.

In the case of `C#CCn1ccc2cc([N+](=O)[O-])ccc21`, the IC50 at 48 h in [1] is > 100 µM. Besides, in data set [2], the concentration for half-maximal inhibition (IC50) at 72 h is > 100 µM. Also, the IC50 in data set [3] is > 10 µM; in data set [4], > 10 µM; in [5], > 10 µM; in data set [7], > 125 µM; in [8], > 125 µM; in data set [9], > 125 µM. In addition, the 50% inhibitory concentration (IC50) in [10], in data set [11] and in [12] was > 125 µM throughout. For the same compound, in data set [6], the cytotoxic concentration (CC50) at 72 h was > 500 µM.

With `N=C(N)c1ccc(OCCCCCOc2ccc(C(=N)N)cc2)cc1` [PENTAMIDINE], the half-inhibitory concentration (IC50) in data set [7] is 0.014 µM; in [10], 0.33 µM; in [11], 0.001 µM; in data set [12] it was 0.001 µM.

`C#CCn1cc(/C=N\N=C\c2nccn2C)c2cc([N+](=O)[O-])ccc21` yielded a half-maximal inhibitory concentration (IC50) at 48 h in [1] of 54.7 µM. Also, in [2], half-maximal inhibition (IC50 at 72 h) required 29.7 µM. In addition, the IC50 in [3] was > 10 µM; in data set [4], > 10 µM; in [5] it was > 10 µM; in data set [7] it was > 75.5 µM; in data set [8] it was > 75.5 µM; in data set [9], > 75.5 µM. Further, the IC50 was 12.8 µM in data set [10], > 75.5 µM in data set [11] and > 75.5 µM in [12]. The CC50 at 72 h in data set [6] was > 302 µM. Also, the selectivity ratio in data set [13] is > 23.5.

For `C#CCn1cc(/C=N\N)c2cc([N+](=O)[O-])ccc21`, in data set [1], the IC50 at 48 h amounted to 96.8 µM. It took 61 µM to reach half-maximal inhibition in data set [2] (IC50 at 72 h). In addition, the half-inhibitory concentration (IC50) is > 10 µM in [3]; > 10 µM in data set [4]; > 10 µM in data set [5]; > 103 µM in data set [7]; > 103 µM in data set [8]; > 103 µM in [9]. Moreover, the IC50 in data set [10] is > 3.2 µM; in [11] it was > 103 µM; in [12], > 103 µM. Also, the 50% cytotoxic concentration (CC50) at 72 h in data set [6] stood at 341 µM.

With `Cc1ccc(C(=O)Nc2ccc(S(=O)(=O)O)c3cc(S(=O)(=O)O)cc(S(=O)(=O)O)c23)cc1NC(=O)c1cccc(NC(=O)Nc2cccc(C(=O)Nc3cc(C(=O)Nc4ccc(S(=O)(=O)O)c5cc(S(=O)(=O)O)cc(S(=O)(=O)O)c45)ccc3C)c2)c1` [SURAMIN], half-maximal inhibition in data set [12] (IC50) required 0.038 µM.

Consider `C#CCn1cc(/C=N\N=C/C2CC2)c2cc([N+](=O)[O-])ccc21`, for which the 50% inhibitory concentration (IC50) at 48 h in data set [1] came to 88.4 µM. Moreover, the IC50 at 72 h in data set [2] was found to be 51.8 µM. For the same compound, the IC50 in data set [3] is > 10 µM; in [4] it was > 10 µM; in data set [5], > 10 µM; in data set [7] it was > 84.9 µM; in [8], > 84.9 µM; in [9] it was > 84.9 µM. Also, the IC50 in data set [10], in data set [11] and in data set [12] was > 84.9 µM throughout. In data set [6], the CC50 at 72 h was > 340 µM.

For the compound `C#CCn1cc(/C=N\N=C\c2ccccn2)c2cc([N+](=O)[O-])ccc21`, in data set [1], the concentration for half-maximal inhibition (IC50) at 48 h is > 100 µM. Moreover, in [2], the IC50 at 72 h was > 100 µM. Also, the half-maximal inhibitory concentration (IC50) in data set [3] was > 10 µM; in data set [4], 1.59 µM; in data set [5] it was 3.35 µM; in data set [7] it was > 75.5 µM; in data set [8], > 75.5 µM; in data set [9] it was > 75.5 µM. Besides, the IC50 in data set [10], in data set [11] and in [12] was > 75.5 µM in each case. Moreover, the selectivity ratio in data set [14] was > 63; in data set [15], 63; in data set [16], > 30; in data set [17] it was > 30. In [6], the CC50 at 72 h is > 121 µM.

`CC1CS(=O)(=O)CCN1/N=C/c1ccc([N+](=O)[O-])o1` (stereo not given) [NIFURTIMOX] gave an IC50 in [7] of 4.58 µM.

Consider `O=[N+]([O-])c1ccc2[nH]ccc2c1`, for which the IC50 at 48 h in [1] is > 100 µM. For the same compound, the half-inhibitory concentration (IC50) at 72 h in data set [2] is > 100 µM. The IC50 in [3], in [4] and in [5] was > 10 µM throughout.

With `C#CCn1cc(/C=N\N=C\c2cccnc2)c2cc([N+](=O)[O-])ccc21`, the IC50 at 48 h in data set [1] is > 100 µM. The IC50 at 72 h in [2] is > 100 µM. Besides, the half-inhibitory concentration (IC50) was > 10 µM in data set [3]; 1.32 µM in [4]; 1.46 µM in data set [5]; > 75.5 µM in [7]; > 75.5 µM in [8]; > 75.5 µM in data set [9]. The IC50 in data set [10], in data set [11] and in data set [12] was > 75.5 µM in each case. Moreover, the selectivity ratio is > 76 in [14], 76 in [15], > 68 in data set [16] and > 68 in [17]. The compound further registered a half-maximal cytotoxic concentration (CC50) at 72 h in [6] of 111 µM.

Turning to `C#CCn1cc(/C=N\N=C\c2cccn2C)c2cc([N+](=O)[O-])ccc21`, the 50% inhibitory concentration (IC50) in [3] was > 10 µM; in [4] it was > 10 µM; in data set [5] it was > 10 µM; in data set [7] it was > 74.8 µM; in data set [8], > 74.8 µM; in [9], > 74.8 µM. In addition, the IC50 in data set [10], in data set [11] and in data set [12] was > 74.8 µM each time. Also, in data set [6], the CC50 at 72 h was > 299 µM.
